{
  "source": "patent US7629340B2",
  "about": "“N-(6-membered aromatic ring)-amido anti-viral compounds” (SmithKline Beecham Corporation, priority 2005, dated 2009)",
  "data": [
    {"test": "Replicon Assay (luciferase, ET cell line)", "assay_type": "cell-based, HCV", "details": "Hepatitis C virus; % inhibition of replication relative to no compound control, test concentration of 10 μM; ET cells, luciferase read 48-72 hours; read-out: % inhib at 10 uM", "description": "A cell line, ET (Huh-lucubineo-ET) was used for screening of compounds of the present invention for HCV RNA dependent RNA polymerase. The ET cell line was stably transfected with RNA transcripts harboring a I389luc-ubi-neo/NS3-3′/ET; replicon with firefly luciferase-ubiquitin-neomycin phosphotransferase fusion protein and EMCV-IRES driven NS3-5B polyprotein containing the cell culture adaptive mutations (E1202G; T1280I; K1846T) (Krieger at al, 2001 and unpublished). The ET cells were grown in DMEM, supplemented with 10% fetal calf serum, 2 mM Glutamine, Penicillin (100 IU/mL)/Stretomycin (100 μg/mL), 1× nonessential amino acids, and 250 μg/mL G418 (“Geneticin”). They were all available through Life Technologies (Bethesda, Md.). The cells were plated at 0.5−1.0×10^4 cells/well in the 96 well plates and incubated for 24 hrs before adding nucleoside analogs. […] Luciferase activity were measured 48-72 hours later by adding a lysis buffer and the substrate (Catalog number Glo-lysis buffer E2661 and Bright-Glo luciferase system E2620 Promega, Madison, Wis.). Cells should not be too confluent during the assay. Percent inhibition of replication was plotted relative to no compound control. Under the same condition, cytotoxicity of the compounds was determined using cell proliferation reagent, WST-1 (Roche, Germany). The compounds showing antiviral activities, but no significant cytotoxicities were chosen to determine IC50 and TC50. For these determinations, 10 concentration of each compound were used. Concentrations for test compounds typically span a range of 500 fold. IC50 and TC50 values were calculated by fitting % inhibition at each concentration (I) to the following equation: % inhibition=100%/[1+10^(log IC50−log(I))*b] where b is Hill's coefficient.", "units": {"inhibition at 10 µM": "%"}, "values": [
      {"molecule": "COc1cccc(OC)c1-c1cccc(NC(=O)[C@@H]2CCCN2C(=O)OCc2ccccc2)c1", "note": "(stereo in doubt) [Compound 6033, 2-(2′,6′-Dimethoxybiphenyl-3-yl-carbamoyl)-pyrrolidine-1-carboxylic acid benzyl ester]", "inhibition at 10 µM": 8.26},
      {"molecule": "O=C1Cc2cc(-c3cccc(NC(=O)[C@@H]4CCCN4C(=O)OCc4ccccc4)c3)ccc2N1", "note": "[Compound 6083, 2-[3-(2-Oxo-2,3-dihydro-1H-indol-5-yl)-phenylcarbamoyl]-pyrrolidine-1-carboxylic acid benzyl ester]", "inhibition at 10 µM": 93.8},
      {"molecule": "O=C(Nc1cccc(Br)c1)[C@@H]1CCCN1C(=O)OCc1ccccc1", "note": "[Compound 6047, 2-(3-Bromo-phenylcarbamoyl)-pyrrolidine-1-carboxylic acid benzyl ester]", "inhibition at 10 µM": 1.38},
      {"molecule": "Cc1nc2cc(-c3cccc(NC(=O)[C@@H]4CCCN4C(=O)OCc4ccccc4)c3)ccc2s1", "note": "[Compound 6091, 2-[3-(2-Methyl-benzothiazol-5-yl)-phenylcarbamoyl]-pyrrolidine-1-carboxylic acid benzyl ester]", "inhibition at 10 µM": 97.7},
      {"molecule": "CN(C)c1cccc(-c2cccc(NC(=O)[C@@H]3CCCN3C(=O)OCc3ccccc3)c2)c1", "note": "[Compound 6096, 2-(3′-Dimethylamino-biphenyl-3-ylcarbamoyl)-pyrrolidine-1-carboxylic acid benzyl ester]", "inhibition at 10 µM": 53.3},
      {"molecule": "O=C(Nc1ccc(-c2cccc(-c3ccccc3)c2)cc1)[C@@H]1CCCN1C(=O)OCc1ccccc1", "note": "[Compound 6011, 2-([1,1′;3′,1″]Terphenyl-4-ylcarbamoyl)-pyrrolidine-1-carboxylic acid benzyl ester]", "inhibition at 10 µM": 99.7},
      {"molecule": "O=C(Nc1c(Cl)cccc1Cl)c1ccc(NC(=O)[C@@H]2CCCN2C(=O)OCc2ccccc2)cc1", "note": "[Compound 6004, 2-[4-(2,6-Dichloro-phenylcarbamoyl)-phenylcarbamoyl]-pyrrolidine-1-carboxylic acid benzyl ester]", "inhibition at 10 µM": 2.08},
      {"molecule": "Nc1ccc(-c2cccc(NC(=O)[C@@H]3CCCN3C(=O)OCc3ccccc3)c2)cc1", "note": "[Compound 6086, 2-(4′-Amino-biphenyl-3-ylcarbamoyl)-pyrrolidine-1-carboxylic acid benzyl ester]", "inhibition at 10 µM": 89.9},
      {"molecule": "Cc1c(N)cccc1-c1cccc(NC(=O)[C@@H]2CCCN2C(=O)OCc2ccccc2)c1", "note": "[Compound 6090, 2-(3′-Amino-2′-methyl-biphenyl-3-ylcarbamoyl)-pyrrolidine-1-carboxylic acid benzyl ester]", "inhibition at 10 µM": 59.6},
      {"molecule": "O=C(Nc1cccc(-c2ccc3cc(O)ccc3c2)c1)[C@@H]1CCCN1C(=O)OCc1ccccc1", "note": "[Compound 6088, 2-[3-(6-Hydroxy-naphthalen-2-yl)-phenylcarbamoyl]-pyrrolidine-1-carboxylic acid benzyl ester]", "inhibition at 10 µM": 99.9},
      {"molecule": "O=C(Nc1ccc(-c2ccc3[nH]ccc3c2)cc1)[C@@H]1CCCN1C(=O)OCc1ccccc1", "note": "[Compound 6009, 2-[4-(1H-Indol-5-yl)-phenylcarbamoyl]-pyrrolidine-1-carboxylic acid benzyl ester]", "inhibition at 10 µM": 83.3},
      {"molecule": "O=C1Nc2ccc(-c3cccc(NC(=O)[C@@H]4CCCN4C(=O)OCc4ccccc4)c3)cc2C1=O", "note": "[Compound 6084, 2-[3-(2,3-Dioxo-2,3-dihydro-1H-indol-5-yl)-phenylcarbamoyl]-pyrrolidine-1-carboxylic acid benzyl ester]", "inhibition at 10 µM": 3.35},
      {"molecule": "CC(=O)Nc1cccc(-c2cccc(NC(=O)[C@@H]3CCCN3C(=O)OCc3ccccc3)c2)c1", "note": "[Compound 6057, 2-(3′-Acetylamino-biphenyl-3-ylcarbamoyl)-pyrrolidine-1-carboxylic acid benzyl ester]", "inhibition at 10 µM": 61.7},
      {"molecule": "CNc1cccc(-c2cccc(NC(=O)[C@@H]3CCCN3C(=O)OCc3ccccc3)c2)c1", "note": "[Compound 6089, 2-(3′-Methylamino-biphenyl-3-ylcarbamoyl)-pyrrolidine-1-carboxylic acid benzyl ester]", "inhibition at 10 µM": 76.4},
      {"molecule": "COc1ccc(-c2ccc(NC(=O)[C@@H]3CCCN3C(=O)OCc3ccccc3)cc2)c(OC)c1", "note": "[Compound 6001, 2-(2′,4′-Dimethoxy-biphenyl-4-ylcarbamoyl)-pyrrolidine-1-carboxylic acid benzyl ester]", "inhibition at 10 µM": 87.8},
      {"molecule": "CC(=O)c1cccc(-c2cccc(NC(=O)[C@@H]3CCCN3C(=O)OCc3ccccc3)c2)c1", "note": "[Compound 6087, 2-(3′-Acetyl-biphenyl-3-ylcarbamoyl)-pyrrolidine-1-carboxylic acid benzyl ester]", "inhibition at 10 µM": 78.9},
      {"molecule": "COc1cccc(-c2ccc(NC(=O)[C@@H]3CCCN3C(=O)OCc3ccccc3)cc2)c1OC", "note": "[Compound 6028, 2-(2′,3′-Dimethoxy-biphenyl-4-ylcarbamoyl)-pyrrolidine-1-carboxylic acid benzyl ester]", "inhibition at 10 µM": 75},
      {"molecule": "O=C(Nc1cccc(-c2cccc([N+](=O)[O-])c2)c1)[C@@H]1CCCN1C(=O)OCc1ccccc1", "note": "[Compound 6309, 2-(3′-Nitro-biphenyl-3-ylcarbamoyl)-pyrrolidine-1-carboxylic acid benzyl ester]", "inhibition at 10 µM": 99.8},
      {"molecule": "O=C(Cc1cccc(-c2cccc(NC(=O)[C@@H]3CCCN3C(=O)OCc3ccccc3)c2)c1)NC1CC1", "note": "[Compound 6312, 2-(3′-Cyclopropylcarbamoylmethyl-biphenyl-3-ylcarbamoyl)-pyrrolidine-1-carboxylic acid benzyl ester]", "inhibition at 10 µM": 68.6},
      {"molecule": "O=C(Nc1cccc(-c2cccc3[nH]ccc23)c1)[C@@H]1CCCN1C(=O)OCc1ccccc1", "note": "[Compound 6082, 2-[3-(1H-Indol-4-yl)-phenylcarbamoyl]-pyrrolidine-1-carboxylic acid benzyl ester]", "inhibition at 10 µM": 97.4},
      {"molecule": "O=C(Nc1cccc(Oc2c(F)c(F)c(F)c(F)c2F)c1)[C@@H]1CCCN1C(=O)OCc1ccccc1", "note": "[Compound 6012, 2-(3-Pentafluorophenyloxy-phenylcarbamoyl)-pyrrolidine-1-carboxylic acid benzyl ester]", "inhibition at 10 µM": 44.5},
      {"molecule": "O=C(Nc1cccc(-c2ccc3cc[nH]c3c2)c1)[C@@H]1CCCN1C(=O)OCc1ccccc1", "note": "[Compound 6097, 2-[3-(1H-Indol-6-yl)-phenylcarbamoyl]-pyrrolidine-1-carboxylic acid benzyl ester]", "inhibition at 10 µM": 99.8},
      {"molecule": "O=C(Nc1cc(Oc2ccccc2)cc(Oc2cccnc2)c1)[C@@H]1CCCN1C(=O)OCc1ccccc1", "note": "[Compound 6024, 2-[3-Phenoxy-5-(pyridin-3-yloxy)-phenylcarbamoyl]-pyrrolidine-1-carboxylic acid benzyl ester]", "inhibition at 10 µM": 98.1},
      {"molecule": "Cn1ccc2cc(-c3cccc(NC(=O)[C@@H]4CCCN4C(=O)OCc4ccccc4)c3)ccc21", "note": "[Compound 6051, 2-[3-(1-Methyl-1H-indol-5-yl)-phenylcarbamoyl]-pyrrolidine-1-carboxylic acid benzyl ester]", "inhibition at 10 µM": 68.8},
      {"molecule": "O=C(O)/C=C/c1ccc(-c2cccc(NC(=O)[C@@H]3CCCN3C(=O)OCc3ccccc3)c2)cc1", "note": "[Compound 6055, 2-[4′-(2-Carboxy-vinyl)-biphenyl-3-ylcarbamoyl]-pyrrolidine-1-carboxylic acid benzyl ester]", "inhibition at 10 µM": 40.9},
      {"molecule": "COc1ccc(-c2cccc(NC(=O)[C@@H]3CCCN3C(=O)OCc3ccccc3)c2)cc1OC", "note": "[Compound 6029, 2-(3′,4′-Dimethoxybiphenyl-3-yl-carbamoyl)-pyrrolidine-1-carboxylic acid benzyl ester]", "inhibition at 10 µM": 3.08},
      {"molecule": "O=C(Nc1cccc(-c2cccc(O)c2)c1)[C@@H]1CCCN1C(=O)OCc1ccccc1", "note": "[Compound 6092, 2-(3′-Hydroxy-biphenyl-3-ylcarbamoyl)-pyrrolidine-1-carboxylic acid benzyl ester]", "inhibition at 10 µM": 95.3},
      {"molecule": "COc1ccccc1-c1cccc(NC(=O)[C@@H]2CCCN2C(=O)OCc2ccccc2)c1", "note": "[Compound 6031, 2-(2′-Methoxybiphenyl-3-yl-carbamoyl)-pyrrolidine-1-carboxylic acid benzyl ester]", "inhibition at 10 µM": 28.6},
      {"molecule": "O=C(NC1CC1)c1ccc(NC(=O)[C@@H]2CCCN2C(=O)OCc2ccccc2)cc1", "note": "[Compound 6305, 2-(4-Cyclopropylcarbamoyl-phenylcarbamoyl)-pyrrolidine-1-carboxylic acid benzyl ester]", "inhibition at 10 µM": 88.2},
      {"molecule": "O=C(NC1CC1)c1ccc(-c2cccc(NC(=O)[C@@H]3CCCN3C(=O)OCc3ccccc3)c2)cc1", "note": "[Compound 6301, 2-(4′-Cyclopropylcarbamoyl-biphenyl-3-ylcarbamoyl)-pyrrolidine-1-carboxylic acid benzyl ester]", "inhibition at 10 µM": 99.1},
      {"molecule": "O=C(Nc1ccc(-c2cccs2)cc1)[C@@H]1CCCN1C(=O)OCc1ccccc1", "note": "[Compound 6023, 2-(4-Thiophen-2-yl-phenylcarbamoyl)-pyrrolidine-1-carboxylic acid benzyl ester]", "inhibition at 10 µM": 75.4},
      {"molecule": "CC(=O)Nc1ccc(-c2cccc(NC(=O)[C@@H]3CCCN3C(=O)OCc3ccccc3)c2)cc1", "note": "[Compound 6056, 2-(4′-Acetylamino-biphenyl-3-ylcarbamoyl)-pyrrolidine-1-carboxylic acid benzyl ester]", "inhibition at 10 µM": 80.8}
    ]}
  ]
}
